From PubChem BioAssay AID1963972 (Molecular Pharmacology Branch, DTP, NCI, 2024)

Tested on: 945468-187-T-J2-PDC spheroids viability
Assay: Anticancer human tumor 945468-187-T-J2-PDC patient-derived rectal carcinoma cell line growth inhibition [PI3K]
Conditions: spheroids with HUVEC and MSC; for IC50: curve of first compound; for viability, T/C: stronger effect = lower value
Summary of the method: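 Tumor cells grown as multi-cell spheroids with HUVEC endothelial cells and MSC fibroblast-like stroma were treated with targeted agents combined with inavolisib, alpelisib, duvelisib or copanlisib. Doses fell in half-log steps from near clinical Cmax, else from 10 microM. Viability was measured.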

[1] = second compound 0.00316 µM, first compound 0.0316 µM
[2] = second compound 0.00316 µM, first compound 0.1 µM
[3] = second compound 0.01 µM, first compound 0.0316 µM
[4] = second compound 0.01 µM, first compound 0.1 µM
[5] = second compound 0.0316 µM, first compound 0.0316 µM
[6] = second compound 0.0316 µM, first compound 0.1 µM
[7] = second compound 0.1 µM, first compound 0.0316 µM
[8] = second compound 0.1 µM, first compound 0.1 µM
[9] = second compound 0.316 µM, first compound 0.0316 µM
[10] = second compound 0.316 µM, first compound 0.1 µM
[11] = second compound 1 µM, first compound 0.0316 µM
[12] = second compound 1 µM, first compound 0.1 µM
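Also: spheroids exposed to compounds for seven days before reading.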

`CC(=O)c1c(C)c2cnc(Nc3ccc(N4CCNCC4)cn3)nc2n(C2CCCC2)c1=O` + COc1c(OCCCN2CCOCC2)ccc2c3n(c(=NC(=O)c4cnc(N)nc4)nc12)CCN3 was tested, and the IC50 (second compound 0.00316 µM) was greater than 100 nM, the IC50 (second compound 0.01 µM) was greater than 100 nM and the IC50 (second compound 0.0316 µM) was greater than 100 nM. For the same compound, the IC50 (second compound 0.1 µM) was greater than 100 nM, the IC50 (second compound 0.316 µM) was less than 0.316 nM and the IC50 (second compound 1 µM) was less than 0.316 nM. For the same compound, the viability, T/C (second compound 0.00316 µM, first compound 0.000316 µM) was 101%, the viability, T/C (second compound 0.00316 µM, first compound 0.001 µM) was 96.6% and the viability, T/C (second compound 0.00316 µM, first compound 0.00316 µM) was 110%. The viability, T/C (second compound 0.00316 µM, first compound 0.01 µM) was 103%, the viability, T/C [1] was 96.3% and the viability, T/C [2] was 112%. It also gave a viability, T/C (second compound 0.01 µM, first compound 0.000316 µM) of 135%, a viability, T/C (second compound 0.01 µM, first compound 0.001 µM) of 135% and a viability, T/C (second compound 0.01 µM, first compound 0.00316 µM) of 120%. It also gave a viability, T/C (second compound 0.01 µM, first compound 0.01 µM) of 108%, a viability, T/C [3] of 110% and a viability, T/C [4] of 130%. The viability, T/C (second compound 0.0316 µM, first compound 0.000316 µM) was 115%, the viability, T/C (second compound 0.0316 µM, first compound 0.001 µM) was 95.4% and the viability, T/C (second compound 0.0316 µM, first compound 0.00316 µM) was 101%. The viability, T/C (second compound 0.0316 µM, first compound 0.01 µM) was 105%, the viability, T/C [5] was 118% and the viability, T/C [6] was 113%. It also gave a viability, T/C (second compound 0.1 µM, first compound 0.000316 µM) of 102%, a viability, T/C (second compound 0.1 µM, first compound 0.001 µM) of 101% and a viability, T/C (second compound 0.1 µM, first compound 0.00316 µM) of 115%. For the same compound, the viability, T/C (second compound 0.1 µM, first compound 0.01 µM) was 80%, the viability, T/C [7] was 85.5% and the viability, T/C [8] was 89.9%. For the same compound, the viability, T/C (second compound 0.316 µM, first compound 0.000316 µM) was 38.6%, the viability, T/C (second compound 0.316 µM, first compound 0.001 µM) was 36.7% and the viability, T/C (second compound 0.316 µM, first compound 0.00316 µM) was 45.7%. For the same compound, the viability, T/C (second compound 0.316 µM, first compound 0.01 µM) was 40.9%, the viability, T/C [9] was 36.2% and the viability, T/C [10] was 37.4%. The viability, T/C (second compound 1 µM, first compound 0.000316 µM) was 24.2%, the viability, T/C (second compound 1 µM, first compound 0.001 µM) was 21.4% and the viability, T/C (second compound 1 µM, first compound 0.00316 µM) was 28.7%. For the same compound, the viability, T/C (second compound 1 µM, first compound 0.01 µM) was 21.6%, the viability, T/C [11] was 22.8% and the viability, T/C [12] was 18.5%.

Compound `CNC(=O)c1ccc(N2C(=S)N(c3ccc(C#N)c(C(F)(F)F)c3)C(=O)C2(C)C)cc1F` + COc1c(OCCCN2CCOCC2)ccc2c3n(c(=NC(=O)c4cnc(N)nc4)nc12)CCN3 has an IC50 (second compound 0.00316 µM) greater than 10000 nM, an IC50 (second compound 0.01 µM) greater than 10000 nM and an IC50 (second compound 0.0316 µM) greater than 10000 nM. It also gave an IC50 (second compound 0.1 µM) greater than 10000 nM, an IC50 (second compound 0.316 µM) of less than 31.6 nM and an IC50 (second compound 1 µM) of less than 31.6 nM. The viability, T/C [1] was 107%, the viability, T/C [2] was 86.3% and the viability, T/C (second compound 0.00316 µM, first compound 0.316 µM) was 94.9%. It also gave a viability, T/C (second compound 0.00316 µM, first compound 1 µM) of 113%, a viability, T/C (second compound 0.00316 µM, first compound 3.16 µM) of 91.1% and a viability, T/C (second compound 0.00316 µM, first compound 10 µM) of 80%. It also gave a viability, T/C [3] of 95.5%, a viability, T/C [4] of 92.2% and a viability, T/C (second compound 0.01 µM, first compound 0.316 µM) of 108%. For the same compound, the viability, T/C (second compound 0.01 µM, first compound 1 µM) was 110%, the viability, T/C (second compound 0.01 µM, first compound 3.16 µM) was 90.9% and the viability, T/C (second compound 0.01 µM, first compound 10 µM) was 72.1%. For the same compound, the viability, T/C [5] was 87.8%, the viability, T/C [6] was 93.1% and the viability, T/C (second compound 0.0316 µM, first compound 0.316 µM) was 113%. It also gave a viability, T/C (second compound 0.0316 µM, first compound 1 µM) of 111%, a viability, T/C (second compound 0.0316 µM, first compound 3.16 µM) of 93% and a viability, T/C (second compound 0.0316 µM, first compound 10 µM) of 109%. For the same compound, the viability, T/C [7] was 102%, the viability, T/C [8] was 94% and the viability, T/C (second compound 0.1 µM, first compound 0.316 µM) was 95.9%. The viability, T/C (second compound 0.1 µM, first compound 1 µM) was 81.2%, the viability, T/C (second compound 0.1 µM, first compound 3.16 µM) was 82% and the viability, T/C (second compound 0.1 µM, first compound 10 µM) was 64.4%. The viability, T/C [9] was 33.8%, the viability, T/C [10] was 39.6% and the viability, T/C (second compound 0.316 µM, first compound 0.316 µM) was 48.2%. The viability, T/C (second compound 0.316 µM, first compound 1 µM) was 38.6%, the viability, T/C (second compound 0.316 µM, first compound 3.16 µM) was 38.5% and the viability, T/C (second compound 0.316 µM, first compound 10 µM) was 34.7%. It also gave a viability, T/C [11] of 18.2%, a viability, T/C [12] of 21.1% and a viability, T/C (second compound 1 µM, first compound 0.316 µM) of 17.2%. The viability, T/C (second compound 1 µM, first compound 1 µM) was 23.1%, the viability, T/C (second compound 1 µM, first compound 3.16 µM) was 23.3% and the viability, T/C (second compound 1 µM, first compound 10 µM) was 21%.
